Where two headings read alike, the source gives them in different places.
How the values were obtained:
[1] = target: T1, FL-SMARCA2 (full-length human SMARCA2 isoform 1) (Homo sapiens, UniProt P51531); assay: SMARCA2 ATPase activity assay (ADP-Glo, chicken mononucleosome substrate); assay type: biochemical; details: ATP 250 uM
T1 construct: FLAG tag (YKDDDDK) (C); made in house; host or cells: Sf21 insect cells (baculovirus, pFastBacI)
Text: Molecular Biology: Full-length human SMARCA2 isoform 1 (P51531) transcript clone was amplified from a cDNA library incorporating an N-terminal HIS tag ([…]) fused directly to Ser2 of SMARCA2 and a C-FLAG tag (YKDDDDK) fused directly to Glu1590 of SMARCA2. The amplified gene was subcloned into pFastBacI (Life Technologies).
Protein Expression: Recombinant baculovirus were generated and protein over-expression was accomplished by infecting exponentially growing Sf21 insect cell culture at 1.24×10^6 cell/ml with an MOI of 0.1. Infections were carried out for 76 hours, harvested by centrifugation, and stored at −80° C. for purification.
Expressed full-length SMARCA2 was purified from cell paste by FLAG affinity chromatography followed by anion exchange chromatography. The protein was dialyzed into a storage buffer containing 25 mM HEPES, 300 mM KCl, 10% Glycerol, pH 7.9, 1 mM TCEP and 0.01% Tween-20. The purity of the protein was measured as 74% using micro-capillary based gel electrophoresis.

FL-SMARCA4 = FL-SMARCA4 (Homo sapiens, UniProt P51532); assay: SMARCA4 ATPase activity assay (ADP-Glo, chicken mononucleosome substrate)
Chain of FL-SMARCA4 (P51532 whole entry): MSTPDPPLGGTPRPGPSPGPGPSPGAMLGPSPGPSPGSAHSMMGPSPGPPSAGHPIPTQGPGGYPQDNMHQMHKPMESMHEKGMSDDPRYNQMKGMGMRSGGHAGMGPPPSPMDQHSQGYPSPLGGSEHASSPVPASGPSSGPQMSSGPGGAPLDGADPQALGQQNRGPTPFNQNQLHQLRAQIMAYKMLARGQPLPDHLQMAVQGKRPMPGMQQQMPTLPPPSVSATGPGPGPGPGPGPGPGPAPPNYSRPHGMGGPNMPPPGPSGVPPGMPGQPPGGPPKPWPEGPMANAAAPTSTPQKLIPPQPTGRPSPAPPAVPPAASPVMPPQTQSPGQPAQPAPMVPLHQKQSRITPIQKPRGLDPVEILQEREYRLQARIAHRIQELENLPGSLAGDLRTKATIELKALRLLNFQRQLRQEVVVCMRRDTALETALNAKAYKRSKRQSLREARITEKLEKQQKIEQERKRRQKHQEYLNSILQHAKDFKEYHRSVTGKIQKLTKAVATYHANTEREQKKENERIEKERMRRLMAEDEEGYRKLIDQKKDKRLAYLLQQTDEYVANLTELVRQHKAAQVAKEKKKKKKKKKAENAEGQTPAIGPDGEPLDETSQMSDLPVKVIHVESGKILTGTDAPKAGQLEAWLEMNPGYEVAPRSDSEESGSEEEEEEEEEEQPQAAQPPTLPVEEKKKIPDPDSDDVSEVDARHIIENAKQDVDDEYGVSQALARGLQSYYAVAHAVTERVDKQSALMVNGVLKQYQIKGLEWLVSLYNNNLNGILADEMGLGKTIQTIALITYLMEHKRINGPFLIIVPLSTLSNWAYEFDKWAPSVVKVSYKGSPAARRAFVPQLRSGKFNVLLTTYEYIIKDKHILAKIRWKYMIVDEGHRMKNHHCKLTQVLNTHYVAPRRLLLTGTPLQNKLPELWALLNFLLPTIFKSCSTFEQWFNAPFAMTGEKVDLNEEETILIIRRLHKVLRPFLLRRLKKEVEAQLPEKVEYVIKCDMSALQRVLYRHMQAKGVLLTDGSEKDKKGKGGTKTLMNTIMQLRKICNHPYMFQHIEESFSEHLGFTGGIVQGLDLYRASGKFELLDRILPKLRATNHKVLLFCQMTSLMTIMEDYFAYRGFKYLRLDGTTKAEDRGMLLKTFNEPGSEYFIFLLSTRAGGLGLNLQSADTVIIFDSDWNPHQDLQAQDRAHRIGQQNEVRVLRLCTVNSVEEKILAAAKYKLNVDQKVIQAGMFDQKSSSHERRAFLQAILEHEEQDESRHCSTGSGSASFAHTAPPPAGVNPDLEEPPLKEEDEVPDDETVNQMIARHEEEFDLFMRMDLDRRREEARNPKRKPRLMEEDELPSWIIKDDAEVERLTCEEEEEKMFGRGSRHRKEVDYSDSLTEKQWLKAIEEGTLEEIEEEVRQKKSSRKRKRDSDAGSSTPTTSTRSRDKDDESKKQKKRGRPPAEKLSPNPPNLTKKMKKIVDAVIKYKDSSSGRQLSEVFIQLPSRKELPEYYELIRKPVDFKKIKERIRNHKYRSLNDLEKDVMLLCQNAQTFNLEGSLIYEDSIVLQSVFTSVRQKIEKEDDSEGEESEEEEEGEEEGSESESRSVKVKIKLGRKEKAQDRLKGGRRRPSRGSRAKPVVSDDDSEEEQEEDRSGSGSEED

[2] = Table 3c.1, ATPase assay, enzyme 5 nM, chicken mononucleosome 10 nM, 30 min preincubation
[3] = FL-SMARCA4 IC>50, Table 3c.2, ATPase assay, enzyme 5 nM, ATP 250 uM, chicken mononucleosome 10 nM, 30 min preincubation
[4] = Table 3b.1, SMARCA2 5 nM, mononucleosome 10 nM
[5] = FL-SMARCA4 IC50, Table 3b.2, SMARCA4 5 nM, ATP 250 uM, mononucleosome 10 nM
[6] = Table 3.1, ATPase assay, enzyme 5 nM, chicken mononucleosome 10 nM, 30 min preincubation
[7] = FL-SMARCA4 IC50, Table 3.2, ATPase assay, enzyme 5 nM, ATP 250 uM, chicken mononucleosome 10 nM, 30 min preincubation
[8] = Table 3d.1, ATPase assay, enzyme 5 nM, chicken mononucleosome 10 nM, 30 min preincubation, read-out: FL-SMARCA2 IC>50
[9] = Table 3a.1, SMARCA2 5 nM, mononucleosome 10 nM
[10] = FL-SMARCA4 IC50, Table 3a.2, SMARCA4 5 nM, ATP 250 uM, mononucleosome 10 nM

T1 sequence (P51531 with tags, fused parts or gaps): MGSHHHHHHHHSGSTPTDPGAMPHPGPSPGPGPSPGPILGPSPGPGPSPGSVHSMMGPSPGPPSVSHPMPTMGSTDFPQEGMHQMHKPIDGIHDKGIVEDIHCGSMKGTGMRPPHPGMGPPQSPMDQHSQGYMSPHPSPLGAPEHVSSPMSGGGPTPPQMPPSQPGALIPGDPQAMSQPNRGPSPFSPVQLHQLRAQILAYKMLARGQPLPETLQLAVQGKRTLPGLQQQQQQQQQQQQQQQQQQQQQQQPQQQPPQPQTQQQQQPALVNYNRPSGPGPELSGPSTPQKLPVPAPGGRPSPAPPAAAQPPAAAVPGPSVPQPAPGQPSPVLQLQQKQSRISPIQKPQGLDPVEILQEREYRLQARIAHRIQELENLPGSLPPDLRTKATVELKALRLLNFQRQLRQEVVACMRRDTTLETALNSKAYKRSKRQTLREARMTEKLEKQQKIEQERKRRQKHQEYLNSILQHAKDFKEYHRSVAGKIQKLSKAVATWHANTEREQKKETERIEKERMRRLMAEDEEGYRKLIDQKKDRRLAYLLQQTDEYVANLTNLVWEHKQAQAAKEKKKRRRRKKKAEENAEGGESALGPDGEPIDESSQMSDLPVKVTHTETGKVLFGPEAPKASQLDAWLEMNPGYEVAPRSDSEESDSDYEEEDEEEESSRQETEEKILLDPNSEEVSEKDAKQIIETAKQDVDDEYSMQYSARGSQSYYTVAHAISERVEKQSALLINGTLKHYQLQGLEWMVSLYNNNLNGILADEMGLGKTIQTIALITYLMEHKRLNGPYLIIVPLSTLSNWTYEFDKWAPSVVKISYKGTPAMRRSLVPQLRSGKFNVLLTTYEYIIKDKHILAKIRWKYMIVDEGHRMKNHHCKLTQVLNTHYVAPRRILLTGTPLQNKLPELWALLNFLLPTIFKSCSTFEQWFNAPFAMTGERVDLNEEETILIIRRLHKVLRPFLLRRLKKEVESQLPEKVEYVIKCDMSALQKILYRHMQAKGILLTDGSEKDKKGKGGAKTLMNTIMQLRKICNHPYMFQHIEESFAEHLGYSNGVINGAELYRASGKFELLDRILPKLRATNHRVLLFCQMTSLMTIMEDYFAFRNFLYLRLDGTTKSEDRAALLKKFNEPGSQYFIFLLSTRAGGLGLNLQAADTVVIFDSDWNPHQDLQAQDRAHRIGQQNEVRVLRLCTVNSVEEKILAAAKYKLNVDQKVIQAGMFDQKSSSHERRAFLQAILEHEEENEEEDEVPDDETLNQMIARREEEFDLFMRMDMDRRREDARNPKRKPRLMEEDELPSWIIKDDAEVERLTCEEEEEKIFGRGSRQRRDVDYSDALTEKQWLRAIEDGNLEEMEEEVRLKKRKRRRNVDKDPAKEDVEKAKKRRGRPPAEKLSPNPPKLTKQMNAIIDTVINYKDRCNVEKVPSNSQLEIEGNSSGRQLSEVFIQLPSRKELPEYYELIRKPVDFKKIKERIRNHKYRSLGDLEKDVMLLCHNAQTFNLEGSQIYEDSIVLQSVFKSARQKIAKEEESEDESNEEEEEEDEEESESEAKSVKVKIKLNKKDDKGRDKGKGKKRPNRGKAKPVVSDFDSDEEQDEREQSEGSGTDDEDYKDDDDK

Row | SMILES | IC50 [1, 6] [µM] | IC50 (FL-SMARCA4; [7]) [µM] | further results
1 | O=C(Nc1cc(-c2cn[nH]c2)c(=O)n(CC(F)F)c1)c1sc(C(F)(F)F)cc1Cl [Compound 20c] | – | – | IC50 [1, 2]: > 50 µM; IC50 (FL-SMARCA4; [3]): > 50 µM
2 | CCn1cc(NC(=O)[C@@H]2CC[C@H](Cl)C2)ccc1=O [Compound 15b] | – | – | IC50 [1, 4]: > 50 µM; IC50 (FL-SMARCA4; [5]): > 50 µM
3 | CCn1cc(NC(=O)c2nc(-c3ccc(OC)cc3)oc2C)ccc1=O [Compound 3] | > 50 | > 50 | –
4 | O=C(Nc1ccc(=O)n(CC(F)(F)F)n1)c1cc(Cl)c(Cl)s1 [Compound 21d] | – | – | IC50 [1, 8]: 16.7 µM; IC50 (FL-SMARCA4; FL-SMARCA4 IC50): > 50 µM
5 | O=C(Nc1cc(F)c(=O)n(CC(F)F)c1)c1cc(F)c(F)s1 [Compound 109c] | – | – | IC50 [1, 2]: 0.0625 µM; IC50 (FL-SMARCA4; [3]): 0.159 µM
6 | CCn1cc(NC(=O)c2cccc(Cl)c2)ccc1=O [Compound 6b] | – | – | IC50 [1, 4]: > 50 µM; IC50 (FL-SMARCA4; [5]): > 50 µM
7 | CCn1cc(NC(=O)c2nncs2)ccc1=O [Compound 90] | > 50 | > 50 | –
8 | O=C(Nc1cc(F)c(=O)n(CCF)c1)c1cc(Cl)c(Cl)o1 [Compound 254] | 5.81 | 47.1 | –
9 | CCn1cc(NC(=O)c2cc(Cl)c(OC)s2)ccc1=O [Compound 116] | 39.3 | > 50 | –
10 | NCCCn1cc(NC(=O)c2cc(F)c(Cl)s2)cc(F)c1=O [Compound 28c] | – | – | IC50 [1, 2]: > 50 µM; IC50 (FL-SMARCA4; [3]): > 50 µM
11 | O=C(Nc1cc(F)c(=O)n(CCF)c1)c1ccc(-c2nccs2)s1 [Compound 317] | > 50 | > 50 | –
12 | CCn1cc(N(C)C(=O)c2cc(Cl)c(Cl)n2C)ccc1=O [Compound 71a] | – | – | IC50 [1, 9]: 2.72 µM; IC50 (FL-SMARCA4; [10]): 39.6 µM
13 | N#Cc1[nH]c(C(=O)Nc2cc(Cl)c(=O)n(CCF)c2)cc1Cl [Compound 241] | 0.112 | 0.653 | –
14 | CCn1cc(NC(=O)c2coc(Br)n2)ccc1=O [Compound 35] | > 50 | > 50 | –
15 | O=C(Nc1cc(F)c(=O)n(CC(F)F)c1)c1cnc(C#Cc2ccncc2)s1 [Compound 33c] | – | – | IC50 [1, 2]: 8.9 µM; IC50 (FL-SMARCA4; [3]): 8.15 µM
16 | CCn1cc(NC(=O)CC2CCOCC2)ccc1=O [Compound 9d] | – | – | IC50 [1, 8]: > 50 µM; IC50 (FL-SMARCA4; FL-SMARCA4 IC50): > 50 µM
17 | O=C(Nc1cc(F)c(=O)n(CC(F)F)c1)c1nc(Cl)c(Cl)[nH]1 [Compound 39d] | – | – | IC50 [1, 8]: > 50 µM; IC50 (FL-SMARCA4; FL-SMARCA4 IC50): > 50 µM
18 | CS(=O)(=O)c1cc(C(=O)Nc2cc(F)c(=O)n(CCF)c2)sc1Cl [Compound 307] | 0.94 | 3.27 | –
19 | Cn1c(C(=O)Nc2ccc(=O)[nH]c2)cc(Cl)c1Cl [Compound 37] | > 50 | > 50 | –

Row | SMILES | IC50 [1, 6] [µM] | IC50 (FL-SMARCA4; [7]) [µM] | further results
20 | CCn1cc(NC(=O)c2cc(C)c(Cl)s2)ccc1=O [Compound 65] | 28.4 | > 50 | –
21 | CCn1cc(NC(=O)c2cn(C)c(Cl)n2)ccc1=O [Compound 108] | > 50 | > 50 | –
22 | CCn1cc(NC(=O)c2c[nH]c3c(Cl)cccc23)ccc1=O [Compound 24a] | – | – | IC50 [1, 9]: > 50 µM; IC50 (FL-SMARCA4; [10]): > 50 µM
23 | O=C(Nc1cc(-c2ncco2)c(=O)n(CC(F)F)c1)c1sc(C(F)(F)F)cc1Cl [Compound 30c] | – | – | IC50 [1, 2]: > 50 µM; IC50 (FL-SMARCA4; [3]): > 50 µM
24 | NC(=O)c1ccc(C(=O)Nc2cc(F)c(=O)n(CCF)c2)s1 [Compound 303] | > 50 | > 50 | –
25 | CCn1cc(NC(=O)c2cc(Cl)c(Cl)s2)cc(N(C)C)c1=O [Compound 149] | > 50 | > 50 | –
26 | Cn1c(C(=O)Nc2cc(Cl)c(=O)n(CCF)c2)cc(Cl)c1Cl [Compound 134] | 0.148 | 0.631 | –
27 | CN1C(=O)CCCC1C(=O)Nc1cc(F)c(=O)n(CCF)c1 (stereo not shown) [Compound 48a] | – | – | IC50 [1, 9]: > 50 µM; IC50 (FL-SMARCA4; [10]): > 50 µM
28 | CCc1sc(C(=O)Nc2ccc(=O)n(CC)c2)cc1Cl [Compound 95] | > 50 | > 50 | –
29 | CCn1cc(NC(=O)C2CCCCC2)ccc1=O [Compound 12b] | – | – | IC50 [1, 4]: > 50 µM; IC50 (FL-SMARCA4; [5]): > 50 µM
30 | CN1Cc2cc(C(=O)Nc3cc(F)c(=O)n(CC(F)F)c3)sc2C(F)(F)C1 [Compound 115c] | – | – | IC50 [1, 2]: > 50 µM; IC50 (FL-SMARCA4; [3]): > 50 µM
31 | O=C(Nc1cc(F)c(=O)n(CCF)c1)c1cc2cncnc2[nH]1 [Compound 66a] | – | – | IC50 [1, 9]: 32.1 µM; IC50 (FL-SMARCA4; [10]): > 50 µM
32 | CCn1cc(NC(=O)c2cc(C#Cc3ccncc3)c(Cl)s2)ccc1=O [Compound 334] | 0.182 | 0.337 | –
33 | CNCCn1cc(NC(=O)c2cc(F)c(Cl)s2)cc(F)c1=O [Compound 52c] | – | – | IC50 [1, 2]: > 50 µM; IC50 (FL-SMARCA4; [3]): > 50 µM
34 | CCn1c(Cl)c(NC(=O)c2cc(Cl)c(Cl)s2)ccc1=O [Compound 27d] | – | – | IC50 [1, 8]: > 50 µM; IC50 (FL-SMARCA4; FL-SMARCA4 IC50): > 50 µM
35 | CCn1cc(NC(=O)c2c[nH]c(C)c2)ccc1=O [Compound 55] | > 50 | > 50 | –
36 | CCn1cc(NC(=O)c2cc(Cl)c(Cl)s2)cc(Cl)c1=O [Compound 84] | 0.197 | 1.12 | –
37 | CCn1cc(NC(=O)c2cc(C#N)c(Cl)s2)cc(Cl)c1=O [Compound 172] | 0.238 | 1.07 | –
38 | CCn1cc(NC(=O)c2csc(-c3ccc(C)n3C)n2)ccc1=O [Compound 6] | > 50 | > 50 | –

Row | SMILES | IC50 [1, 6] [µM] | IC50 (FL-SMARCA4; [7]) [µM] | further results
39 | Cn1nc(C(=O)Nc2cc(F)c(=O)n(CCF)c2)cc1C#N [Compound 244] | > 50 | > 50 | –
40 | CCn1cc(NC(=O)c2cc(C)sc2C)ccc1=O [Compound 33] | > 50 | > 50 | –
41 | O=C(Nc1cc(F)c(=O)n(CC(F)F)c1)c1cc(C#Cc2cccnc2)c(Cl)s1 [Compound 329] | 0.0312 | 0.111 | –
42 | CO[C@H]1C[C@@H](C(=O)Nc2ccc(=O)n(C)c2)N(C)C1 [Compound 10a] | – | – | IC50 [1, 9]: > 50 µM; IC50 (FL-SMARCA4; [10]): > 50 µM
43 | CCn1cc(NC(=O)c2ccn(C)c2Cl)ccc1=O [Compound 115] | > 50 | 16.7 | –
44 | CCn1cc(NC(=O)c2cc(Cl)c(Cl)s2)cc(OCCN2CCN(C)CC2)c1=O [Compound 119] | > 50 | > 50 | –
45 | O=C(Nc1cc(F)c(=O)n(CC(F)F)c1)c1cc(Cl)c(C#Cc2cccnc2)s1 [Compound 53d] | – | – | IC50 [1, 8]: > 50 µM; IC50 (FL-SMARCA4; FL-SMARCA4 IC50): > 50 µM
46 | CCn1cc(NC(=O)c2cccn2C)ccc1=O [Compound 13] | > 50 | > 50 | –
47 | CCn1cc(NC(=O)c2cc(Cl)c(Cl)[nH]2)ccc1=O [Compound 17] | 4.06 | 26.6 | –
48 | C[C@H]1OCC(=O)N(Cc2ccccc2)[C@@H]1C(=O)Nc1ccc(=O)n(C)c1 [Compound 7a] | – | – | IC50 [1, 9]: > 50 µM; IC50 (FL-SMARCA4; [10]): > 50 µM
49 | CCn1cc(NC(=O)c2cccc(C(F)(F)F)n2)ccc1=O [Compound 57a] | – | – | IC50 [1, 9]: > 50 µM; IC50 (FL-SMARCA4; [10]): > 50 µM
50 | N#Cc1nc(C(=O)Nc2cc(F)c(=O)n(CC(F)F)c2)co1 [Compound 43d] | – | – | IC50 [1, 8]: > 50 µM; IC50 (FL-SMARCA4; FL-SMARCA4 IC50): > 50 µM
51 | CCn1cc(NC(=O)c2cnn(C)c2)ccc1=O [Compound 92] | > 50 | > 50 | –
52 | CCn1c(C)c(NC(=O)c2cc(Cl)c(Cl)s2)ccc1=O [Compound 25d] | – | – | IC50 [1, 8]: > 50 µM; IC50 (FL-SMARCA4; FL-SMARCA4 IC50): > 50 µM
53 | CCCc1cc(NC(=O)c2cc(Cl)c(Cl)s2)cn(CC)c1=O [Compound 112] | > 50 | > 50 | –
54 | O=C(Nc1ccc(=O)n(CCO)c1)c1cc(Cl)c(Cl)s1 [Compound 83] | 20.8 | > 50 | –
55 | N#Cc1ncc(C(=O)Nc2cc(F)c(=O)n(CCF)c2)o1 [Compound 266] | > 50 | > 50 | –
56 | CCn1cc(NC(=O)n2ncc3ccccc32)ccc1=O [Compound 31a] | – | – | IC50 [1, 9]: > 50 µM; IC50 (FL-SMARCA4; [10]): > 50 µM
